# Data reported in US7445765B2, “Radiopharmaceutical for diagnostic imaging containing a technetium-99m nitride heterocomplex” (Nihon Medi-Physics Co., Ltd., priority 2000, dated 2008).
# Experiment: Biodistribution of the 99mTc(N) heterocomplexes in rats (organ uptake, heart accumulation, heart/lung and heart/liver ratios)
# Assay type: in vivo, female Sprague-Dawley rats
# Settings: rats
# Method: The biodistribution was measured by using female Sprague-Dawley rats (SD rats) weighing 200 g to 250 g. Each of the ^99mTc(N) heterocomplexes purified in the manner described above was diluted with phosphate buffer (0.1 M, pH=7.4) to obtain a final solution having an ethanol content of 10%. After the SD rats were anesthetized with an intramuscular injection of a mixture of ketamine (80 mg/kg) and xilazine (19 mg/kg), the jugular vein of each rat was surgically exposed and 100 μL (300 to 370 kBq) of the solution containing each ^99mTc(N) heterocomplexes prepared in the manner described above was injected in the jugular vein. The rats (n=3) were sacrificed by cervical dislocation at different times post injection. The blood was withdrawn from the heart through a syringe and counted. It was assumed that the whole blood content was 6.5% of the total body weight. The organs were excised from the rats, washed with physiological saline, weighed, and counted in a NaI well counter.
# For comparison, Tables 19 and 20 show the results, obtained in the same manner as above, of measuring the biodistribution of (^99mTc) (MIBI) and (^99mTc) (Tf) which have been used as pharmaceuticals for diagnostic imaging for blood flow in myocardium.
# Tables 21 to 23 show data showing the variations with time of heart accumulation, heart/lung ratios and heart/liver ratios for the ^99mTc(N) heterocomplexes of the present invention.
smiles,measurement,setting,value
CCOCCN1CC[P](CCCOC)(CCCOC)[99Tc+]2(#[N])([S]C(N(CCOCC)C(C)C)=[S]2)[P](CCCOC)(CCCOC)CC1 [[^99m−Tc(N) (PNP5) (ISOET)^+]],Heart accumulation,0 min,3.35 ± 0.51 % ID/g
same,Heart accumulation,2 min,2.33 ± 0.17 % ID/g
same,Heart accumulation,10 min,2.91 ± 0.36 % ID/g
same,Heart accumulation,20 min,2.86 ± 0.07 % ID/g
same,Heart accumulation,30 min,2.47 ± 0.49 % ID/g
same,Heart accumulation,60 min,2.74 ± 0.19 % ID/g
same,Heart accumulation,120 min,2.44 ± 0.05 % ID/g
COCCC[P]1(CCCOC)CCN(CCOC)CC[P](CCCOC)(CCCOC)[99Tc+]12(#[N])[S]C(N(CCOC)CCOC)=[S]2 [[^99m−Tc(N) (PNP3) (DPODC)^+]],Heart accumulation,0 min,3.08 ± 0.31 % ID/g
same,Heart/liver ratio in biodistribution,0 min,0.89
same,Heart/lung ratio in biodistribution,0 min,2.12
same,Heart accumulation,2 min,2.06 ± 0.13 % ID/g
same,Heart/liver ratio in biodistribution,2 min,0.56
same,Heart/lung ratio in biodistribution,2 min,3.17
same,Heart accumulation,10 min,2.37 ± 0.33 % ID/g
same,Heart/liver ratio in biodistribution,10 min,0.68
same,Heart/lung ratio in biodistribution,10 min,3.54
same,Heart accumulation,20 min,2.49 ± 0.31 % ID/g
same,Heart/liver ratio in biodistribution,20 min,1.34
same,Heart/lung ratio in biodistribution,20 min,5.79
same,Heart accumulation,30 min,2.57 ± 0.06 % ID/g
same,Heart/liver ratio in biodistribution,30 min,1.98
same,Heart/lung ratio in biodistribution,30 min,6.27
same,Heart accumulation,60 min,2.26 ± 0.06 % ID/g
same,Heart/liver ratio in biodistribution,60 min,5.38
same,Heart/lung ratio in biodistribution,60 min,8.37
same,Heart accumulation,120 min,2.45 ± 0.41 % ID/g
same,Heart/liver ratio in biodistribution,120 min,15.31
same,Heart/lung ratio in biodistribution,120 min,12.25
CCOCCN1CC[P](CCCOC)(CCCOC)[99Tc+]2(#[N])([S]C(N(CCOCC)C(C)C)=[S]2)[P](CCCOC)(CCCOC)CC1 [[^99mTc(N) (PNP5) (ISOET)^+]],Heart/liver ratio in biodistribution,0 min,3.53
same,Heart/lung ratio in biodistribution,0 min,1.37
same,Heart/liver ratio in biodistribution,2 min,0.83
same,Heart/lung ratio in biodistribution,2 min,3.15
same,Heart/liver ratio in biodistribution,10 min,1.90
same,Heart/lung ratio in biodistribution,10 min,3.99
same,Heart/liver ratio in biodistribution,20 min,2.62
same,Heart/lung ratio in biodistribution,20 min,5.72
same,Heart/liver ratio in biodistribution,30 min,2.33
same,Heart/lung ratio in biodistribution,30 min,5.49
same,Heart/liver ratio in biodistribution,60 min,6.37
same,Heart/lung ratio in biodistribution,60 min,7.83
same,Heart/liver ratio in biodistribution,120 min,10.61
same,Heart/lung ratio in biodistribution,120 min,11.09
CCOCCN1CC[P](CCCOC)(CCCOC)[99Tc+]2(#[N])([S]C(N(CCOCC)CCOCC)=[S]2)[P](CCCOC)(CCCOC)CC1 [[^99mTc(N) (PNP5) (DBODC)^+]],Heart/liver ratio in biodistribution,0 min,6.11
same,Heart/lung ratio in biodistribution,0 min,0.76
same,Heart/liver ratio in biodistribution,2 min,1.48
same,Heart/lung ratio in biodistribution,2 min,3.98
same,Heart/liver ratio in biodistribution,10 min,2.29
same,Heart/lung ratio in biodistribution,10 min,4.19
same,Heart/liver ratio in biodistribution,20 min,3.78
same,Heart/lung ratio in biodistribution,20 min,6.37
same,Heart/liver ratio in biodistribution,30 min,5.18
same,Heart/lung ratio in biodistribution,30 min,5.83
same,Heart/liver ratio in biodistribution,60 min,18.8
same,Heart/lung ratio in biodistribution,60 min,8.17
same,Heart/liver ratio in biodistribution,120 min,33.1
same,Heart/lung ratio in biodistribution,120 min,13.24
CCOCCC[P]1(CCCOCC)CCN(CCOCC)CC[P](CCCOCC)(CCCOCC)[99Tc+]12(#[N])[S]C(N(CCOCC)CCOCC)=[S]2 [PNP6•DBODC],"Biodistribution, Adrenal glands",0 min,2.60 % dose/g
same,"Biodistribution, Blood",0 min,1.42 % dose/g
same,"Biodistribution, Brain",0 min,0.18 % dose/g
same,"Biodistribution, Heart",0 min,2.26 % dose/g
same,"Biodistribution, Intestine",0 min,2.91 % dose/g
same,"Biodistribution, Kidneys",0 min,5.56 % dose/g
same,"Biodistribution, Liver",0 min,3.59 % dose/g
same,"Biodistribution, Lungs",0 min,3.87 % dose/g
same,"Biodistribution, Muscle",0 min,0.06 % dose/g
same,"Biodistribution, Spleen",0 min,1.68 % dose/g
same,"Biodistribution, Submax. glands",0 min,1.17 % dose/g
same,"Biodistribution, Adrenal glands",2 min,3.49 % dose/g
same,"Biodistribution, Blood",2 min,0.17 % dose/g
same,"Biodistribution, Brain",2 min,0.03 % dose/g
same,"Biodistribution, Heart",2 min,1.241 % dose/g
same,"Biodistribution, Intestine",2 min,3.54 % dose/g
same,"Biodistribution, Kidneys",2 min,9.57 % dose/g
same,"Biodistribution, Liver",2 min,5.94 % dose/g
same,"Biodistribution, Lungs",2 min,1.25 % dose/g
same,"Biodistribution, Muscle",2 min,0.17 % dose/g
same,"Biodistribution, Spleen",2 min,3.85 % dose/g
same,"Biodistribution, Submax. glands",2 min,1.26 % dose/g
same,"Biodistribution, Adrenal glands",10 min,4.48 % dose/g
same,"Biodistribution, Blood",10 min,0.06 % dose/g
same,"Biodistribution, Brain",10 min,0.03 % dose/g
same,"Biodistribution, Heart",10 min,1.39 % dose/g
same,"Biodistribution, Intestine",10 min,6.21 % dose/g
same,"Biodistribution, Kidneys",10 min,9.80 % dose/g
same,"Biodistribution, Liver",10 min,7.71 % dose/g
same,"Biodistribution, Lungs",10 min,1.10 % dose/g
same,"Biodistribution, Muscle",10 min,0.16 % dose/g
same,"Biodistribution, Spleen",10 min,4.00 % dose/g
same,"Biodistribution, Submax. glands",10 min,1.27 % dose/g
same,"Biodistribution, Adrenal glands",20 min,3.19 % dose/g
same,"Biodistribution, Blood",20 min,0.03 % dose/g
same,"Biodistribution, Brain",20 min,0.03 % dose/g
same,"Biodistribution, Heart",20 min,1.18 % dose/g
same,"Biodistribution, Intestine",20 min,8.54 % dose/g
same,"Biodistribution, Kidneys",20 min,8.18 % dose/g
same,"Biodistribution, Liver",20 min,6.55 % dose/g
same,"Biodistribution, Lungs",20 min,0.80 % dose/g
same,"Biodistribution, Muscle",20 min,0.09 % dose/g
same,"Biodistribution, Spleen",20 min,3.13 % dose/g
same,"Biodistribution, Submax. glands",20 min,1.03 % dose/g
same,"Biodistribution, Adrenal glands",30 min,3.08 % dose/g
same,"Biodistribution, Blood",30 min,0.05 % dose/g
same,"Biodistribution, Brain",30 min,0.02 % dose/g
same,"Biodistribution, Heart",30 min,1.05 % dose/g
same,"Biodistribution, Intestine",30 min,7.75 % dose/g
same,"Biodistribution, Kidneys",30 min,7.52 % dose/g
same,"Biodistribution, Liver",30 min,4.66 % dose/g
same,"Biodistribution, Lungs",30 min,0.60 % dose/g
same,"Biodistribution, Muscle",30 min,0.11 % dose/g
same,"Biodistribution, Spleen",30 min,2.43 % dose/g
same,"Biodistribution, Submax. glands",30 min,1.08 % dose/g
same,"Biodistribution, Adrenal glands",60 min,3.49 % dose/g
same,"Biodistribution, Blood",60 min,0.02 % dose/g
same,"Biodistribution, Brain",60 min,0.01 % dose/g
same,"Biodistribution, Heart",60 min,1.10 % dose/g
same,"Biodistribution, Intestine",60 min,8.37 % dose/g
same,"Biodistribution, Kidneys",60 min,6.60 % dose/g
same,"Biodistribution, Liver",60 min,3.55 % dose/g
same,"Biodistribution, Lungs",60 min,0.48 % dose/g
same,"Biodistribution, Muscle",60 min,0.12 % dose/g
same,"Biodistribution, Spleen",60 min,2.64 % dose/g
same,"Biodistribution, Submax. glands",60 min,1.30 % dose/g
same,"Biodistribution, Adrenal glands",120 min,3.47 % dose/g
same,"Biodistribution, Blood",120 min,0.02 % dose/g
same,"Biodistribution, Brain",120 min,0.01 % dose/g
same,"Biodistribution, Heart",120 min,1.29 % dose/g
same,"Biodistribution, Intestine",120 min,9.70 % dose/g
same,"Biodistribution, Kidneys",120 min,8.83 % dose/g
same,"Biodistribution, Liver",120 min,2.55 % dose/g
same,"Biodistribution, Lungs",120 min,0.33 % dose/g
same,"Biodistribution, Muscle",120 min,0.14 % dose/g
same,"Biodistribution, Spleen",120 min,2.02 % dose/g
same,"Biodistribution, Submax. glands",120 min,1.36 % dose/g
